Measured values as given in patent US20230255904A1, “PHARMACEUTICAL COMPOSITION FOR PREVENTING OR TREATING CANCER COMPRISING NAPHTHOQUINONE-BASED COMPOUND AND IMMUNE CHECKPOINT INHIBITOR AS ACTIVE INGREDIENTS” (NADIANBIO LTD., priority 2020, published 2023).

How the values were obtained:
calreticulin (ecto-CRT) = assay: Immunogenic cell death analysis: calreticulin on the surface of tumor cells by flow cytometry; type: cell-based; conditions: compared to the control
Method: Calreticulin is one of the most important molecules in the immunogenic cell death process. When the calreticulin appears on membranes of tumor cell, a strong signal for phagocytotic cells including dendritic cells may be generated to cause the phagocytotic cells to attack dying tumor cells. This is the most significant “eat me” signal for immune cells. Whether or not immunogenic cell death was induced by the anticancer agents used in the present invention was assessed through the quantitative change of calreticulin expressed on the surface of cancer cells after the treatment with the anticancer agents. Single cells isolated from the tumor were incubated with anti-calreticulin antibody (ratio of 1:50) as a primary antibody at 4° C. for 30 minutes, and then washed 2 times with PBS.

B16F10 = assay: Tumor growth inhibition, animal model for skin cancer (B16F10); type: in vivo,  mice; conditions: Experimental Example 26; Dunnione 40 mg/kg oral every day from 8th day; Everolimus 0.5 mg/kg oral every day from 8th day
Method: (§1) All mice used in the experiments were raised in a sterile animal room with constant temperature (22° C. to 26° C.) and constant humidity (55% to 60%), acclimatized for 1 week while sufficiently supplying typical solid feed (Samtako Inc., Korea) and water, and then used. All experiments were conducted after obtaining approval from the Institutional Animal Care and Use Committee in accordance with the laboratory animal care and ethics regulations of the Institutional Animal Care and Use Committee of Wonkwang University.
(§2) 7-week-old BALB/c or C57BL/6 mice were used, and subcutaneously inoculated using a 1-mL insulin syringe within 30 minutes after mixing the mouse cancer cells with 0.2 mL of PBS.
(§3) After the cancer cell line was subcutaneously implanted, the administration of drugs was started when the size of the cancer reached 50 to 100 mm^3. The volumes (mm^3) of the tumors, which were generated after the inoculation, were measured at intervals of 3 days using a caliper, calculation was performed using the formula of […], and then the results thereof were compared.
(§4) In addition, sole administration or co-administration of respective drugs was performed according to the administration schedules listed in Tables 4 to 34 below, the tumor volumes were then measured according to the tumor proliferation assessment method described in Example 1.1, the tumor growth inhibition rates (TGI (O)=(Vc−Vt)/Vc×100(%); Vc: tumor volume of control, Vt tumor volume of experimental group) were calculated based the tumor volumes, and the results thereof are shown in the respective tables and FIGS. 1 to 31.

RENCA = assay: Tumor growth inhibition, animal model for renal cancer (RENCA); type: in vivo, BALB/c mice; conditions: Dunnione 40 mg/kg oral every day from 7th day
Method: as §1, §2, §3, §4

4T1 = assay: Tumor growth inhibition, animal model for breast cancer I (4T1); type: in vivo, BALB/c mice; conditions: Experimental Example 10; Dunnione 40 mg/kg oral every day from 5th day; Anti-CTLA4 antibody 200 μg/head i.p. at intervals of 3 days from 5th day, 4 times; Mitoxantrone 6 mg/kg i.p. once on 5th day
Method: as §1, §2, §3, §4

MC38 = assay: Tumor growth inhibition, animal model for colorectal cancer I (MC38); type: in vivo, C57BL/6 mice; conditions: Experimental Example 4; Dunnione 40 mg/kg oral every day from 7th day; Anti-LAG3 antibody 200 μg/head i.p. on 7th, 10th, 14th, 17th days; Oxaliplatin 6 mg/kg i.p. on 7th and 14th days
Method: as §1, §2, §3, §4

CCN1CCN(Cc2ccc(Nc3ncc(F)c(-c4cc(F)c5nc(C)n(C(C)C)c5c4)n3)nc2)CC1 [Abemaciclib]
Expression rate (%) of calreticulin on cell surface (calreticulin (ecto-CRT); Breast cancer, EMT6): 263%

COc1cccc2c1C(=O)c1c(O)c3c(c(O)c1C2=O)C[C@@](O)(C(=O)CO)C[C@@H]3O[C@H]1C[C@H](N)[C@H](O)[C@H](C)O1 [Adriamycin]
Expression rate (%) of calreticulin on cell surface (calreticulin (ecto-CRT); Breast cancer, 4T1): 307%

CO[C@H]1C[C@@H]2CC[C@@H](C)[C@@](O)(O2)C(=O)C(=O)N2CCCC[C@H]2C(=O)O[C@H]([C@H](C)C[C@@H]2CC[C@@H](OCCO)[C@H](OC)C2)CC(=O)[C@H](C)/C=C(\C)[C@@H](O)[C@@H](OC)C(=O)[C@H](C)C[C@H](C)/C=C/C=C/C=C/1C [Everolimus, reference compound]
TGI (%) (B16F10): 28.5% | TGI (%) (RENCA; Experimental Example 15, Anti-CTLA4 antibody 200 μg/head i.p. at intervals of 3 days from 7th day, 7 times, Everolimus 250 μg/kg oral every day from 7th day): 72.8% | Expression rate (%) of calreticulin on cell surface (calreticulin (ecto-CRT); Liver cancer, Hapa1-6): 892% | Expression rate (%) of calreticulin on cell surface (calreticulin (ecto-CRT); Renal cancer, RENCA): 134% | Expression rate (%) of calreticulin on cell surface (calreticulin (ecto-CRT); Skin cancer (melanoma), B16F10): 216%

O=C1c2c(O)ccc(O)c2C(=O)c2c(NCCNCCO)ccc(NCCNCCO)c21 [Mitoxantrone, reference compound]
Expression rate (%) of calreticulin on cell surface (calreticulin (ecto-CRT); Breast cancer, 4T1): 385% | TGI (%) (4T1): 16.3%

O=C1[O][Pt]2([NH][C@@H]3CCCC[C@H]3[NH]2)[O]C1=O [Oxaliplatin, reference compound]
TGI (%) (MC38): 5.6%

CC(=O)O[C@H]1C(=O)[C@@]2(C)[C@H]([C@H](OC(=O)c3ccccc3)[C@]3(O)C[C@H](OC(=O)[C@H](O)[C@@H](NC(=O)c4ccccc4)c4ccccc4)C(C)=C1C3(C)C)[C@]1(OC(C)=O)CO[C@@H]1C[C@@H]2O [Paclitaxel]
Expression rate (%) of calreticulin on cell surface (calreticulin (ecto-CRT); Skin cancer (melanoma), B16F10): 186%

CNC(=O)c1cc(Oc2ccc(NC(=O)Nc3ccc(Cl)c(C(F)(F)F)c3)c(F)c2)ccn1 [Regorafenib]
Expression rate (%) of calreticulin on cell surface (calreticulin (ecto-CRT); Colorectal cancer, MC38): 134% | Expression rate (%) of calreticulin on cell surface (calreticulin (ecto-CRT); Skin cancer (melanoma), B16F10): 166%

CNC(=O)c1cc(Oc2ccc(NC(=O)Nc3ccc(Cl)c(C(F)(F)F)c3)cc2)ccn1 [Sorafenib, reference compound]
TGI (%) (RENCA; Experimental Example 16, Sorafenib 10 mg/kg oral every day from 7th day): 29.4% | Expression rate (%) of calreticulin on cell surface (calreticulin (ecto-CRT); Liver cancer, Hapa1-6): 435%

CNC(=O)c1cccc(-c2ccc3c(N4CCOC[C@@H]4C)nc(N4CCOC[C@@H]4C)nc3n2)c1 [Vistusertib]
Expression rate (%) of calreticulin on cell surface (calreticulin (ecto-CRT); Colorectal cancer, MC38): 175% | Expression rate (%) of calreticulin on cell surface (calreticulin (ecto-CRT); Renal cancer, RENCA): 341% | Expression rate (%) of calreticulin on cell surface (calreticulin (ecto-CRT); Skin cancer (melanoma), B16F10): 145%
